Legend:
Rattus norvegicus [1] = species on record: Rattus norvegicus; assay: Displacement of [125I]-triiodothyronine from thyroid hormone receptor in rat liver membrane homogenates assessed as relative T3 displacement incubated for 18 hrs by scintillation counting method relative to control; format: cell membranes
Rattus norvegicus [2] = species on record: Rattus norvegicus; assay: Displacement of [125I]-triiodothyronine from thyroid hormone receptor in rat liver membrane homogenates incubated for 18 hrs by scintillation counting method; format: cell membranes; set-up: concentration or dose not given beside the values; settings: concentration not given here

Row | relative binding affinity (RBA) (Rattus norvegicus [1]) | inhibition (Rattus norvegicus [2]) | SMILES
1 | 0.19 | 19% | Oc1c(Br)cc(CCc2cccc(F)c2)cc1Br
2 | 0 | 0% | COc1cccc(OC)c1CCc1cc(Br)c(O)c(Br)c1
3 | 0.4 | 40% | Oc1c(Br)cc(/C=C/c2ccc(F)cc2)cc1Br
4 | 0.21 | 21% | O=[N+]([O-])c1ccccc1/C=C/c1cc(Br)c(O)c(Br)c1
5 | 0.04 | 4% | Cc1cccc(CCc2cc(Br)c(O)c(Br)c2)c1
6 | 0.02 | 2% | Oc1c(Br)cc(NCc2ccccc2)cc1Br
7 | 0.45 | 45% | Oc1c(Br)cc(CCc2c(Cl)cccc2Cl)cc1Br
8 | 0.22 | 22% | Oc1ccccc1/C=C/c1cc(Br)c(O)c(Br)c1
9 | 0.08 | 8% | Oc1c(Br)cc(CCc2ccccc2C(F)(F)F)cc1Br
10 | 0.05 | 5% | COc1cccc(CCc2cc(Br)c(O)c(Br)c2)c1
11 | 0.69 | 69% | Oc1c(Br)cc(/C=C/c2ccccc2C(F)(F)F)cc1Br
12 | 0.44 | 44% | Cc1ccccc1/C=C/c1cc(Br)c(O)c(Br)c1
13 | 0.61 | 61% | Oc1c(Br)cc(CCc2c(F)cccc2F)cc1Br
14 | 0.45 | 45% | Oc1c(Br)cc(/C=C/c2cccc(I)c2)cc1Br
15 | 0.55 | 55% | Oc1c(Br)cc(/C=C/c2ccccc2I)cc1Br
16 | 0.03 | 3% | O=[N+]([O-])c1ccccc1CCc1cc(Br)c(O)c(Br)c1
17 | 0 | 0% | Nc1cccc(CCc2cc(Br)c(O)c(Br)c2)c1
18 | 0.12 | 12% | Cc1cccc(C)c1CCc1cc(Br)c(O)c(Br)c1
19 | 0 | 0% | Nc1cccc(/C=C/c2cc(Br)c(O)c(Br)c2)c1
20 | 0.69 | 69% | Oc1c(Br)cc(/C=C/c2ccccc2Br)cc1Br
21 | 0 | 0% | Nc1ccc(CCc2cc(Br)c(O)c(Br)c2)cc1
22 | 0.64 | 64% | Oc1cccc(/C=C/c2cc(Br)c(O)c(Br)c2)c1
23 | 0.14 | 14% | COc1ccccc1NC(=O)Nc1cc(Br)c(O)c(Br)c1
24 | 0 | 0% | COc1ccccc1CCc1cc(Br)c(O)c(Br)c1
25 | 0.32 | 32% | COc1ccccc1/C=C/c1cc(Br)c(O)c(Br)c1
26 | 0.15 | 15% | Nc1ccccc1/C=C/c1cc(Br)c(O)c(Br)c1

Further lines, the molecule ahead of its results:

Row | SMILES | relative binding affinity (RBA) (Rattus norvegicus [1]) | inhibition (Rattus norvegicus [2])
27 | Nc1cccc(/C=C/c2cc(Br)c(N)c(Br)c2)c1 | 0.03 | 3%
28 | COc1cccc(/C=C/c2cc(Br)c(O)c(Br)c2)c1 | 0 | 0%
29 | Cc1cc(C)cc(Oc2cccc3oc4ccccc4c23)c1 | 0 | 0%
30 | COc1cccc(/C=C/c2cc(Br)c(N)c(Br)c2)c1 | 0.01 | 1%
31 | Brc1cc(Br)cc(Oc2cccc3oc4ccccc4c23)c1 | 0 | 0%
32 | Cc1cccc(/C=C/c2cc(Br)c(O)c(Br)c2)c1 | 0.35 | 35%
33 | Oc1c(I)cc(/C=C/c2c(Cl)cccc2Cl)cc1I | 0.92 | 92%
34 | Clc1cccc(Cl)c1COc1cc(Br)cc(Br)c1 | 0.04 | 4%
35 | Cc1cc(/C=C/c2c(Cl)cccc2Cl)cc(C)c1O | 0.41 | 41%
36 | Cc1cc(CCc2c(Cl)cccc2Cl)cc(C)c1O | 0.4 | 40%
37 | Nc1ccc(/C=C/c2cc(Br)c(O)c(Br)c2)cc1 | 0 | 0%
38 | COc1ccc(/C=C/c2cc(Br)c(O)c(Br)c2)cc1 | 0.16 | 16%
39 | Cc1cc(-c2cccc3oc4ccccc4c23)cc(C)c1O | 0 | 0%
40 | Cc1cccc(C)c1/C=C/c1cc(Br)c(O)c(Br)c1 | 0.42 | 42%
41 | Oc1c(Br)cc(/C=C/c2c(Cl)cccc2Cl)cc1Br | 0.7 | 70%
42 | Nc1ccc(/C=C/c2cc(Br)c(N)c(Br)c2)cc1 | 0 | 0%
43 | O=C(O)c1ccc(C(=O)Nc2cc(Br)cc(Br)c2)cc1 | 0.13 | 13%
44 | Oc1c(I)cc(-c2nc3cccc(Cl)c3o2)cc1I | 0.92 | 92%
45 | Oc1cc(O)cc(/C=C/c2cc(Br)c(O)c(Br)c2)c1 | 0.66 | 66%

Row | SMILES | relative binding affinity (RBA) (Rattus norvegicus [1]) | inhibition (Rattus norvegicus [2])
46 | Cc1cc(C)cc(/C=C/c2cc(Br)c(O)c(Br)c2)c1 | 0.2 | 20%
47 | O=[N+]([O-])c1ccccc1S(=O)(=O)Nc1cc(Cl)c(O)c(Cl)c1 | 0.07 | 7%
48 | Oc1c(Br)cc(-c2cccc3oc4ccccc4c23)cc1Br | 0.36 | 36%
49 | Cc1cc(-c2cc(C)c(O)c(C)c2)cc(C)c1O | 0.11 | 11%
50 | O=[N+]([O-])c1ccccc1COc1cc(Br)cc(Br)c1 | 0 | 0%
51 | Brc1cc(Br)cc(-c2cccc3oc4ccccc4c23)c1 | 0 | 0%
52 | Oc1ccc(/C=C/c2cc(Br)c(O)c(Br)c2)cc1 | 0.5 | 50%
53 | Cc1cc(-c2nc3c([N+](=O)[O-])cccc3o2)cc(C)c1O | 0.16 | 16%
54 | Clc1cccc(Cl)c1/C=C/c1cc(Br)cc(Br)c1 | 0.13 | 13%
55 | COc1cccc(OC)c1/C=C/c1cc(Br)c(O)c(Br)c1 | 0 | 0%
56 | COc1ccccc1C(=O)Nc1cc(Br)cc(Br)c1 | 0.1 | 10%
57 | Cc1cc(C)cc(Nc2cccc3oc4ccccc4c23)c1 | 0 | 0%
58 | Oc1c(Br)cc(Oc2cccc3oc4ccccc4c23)cc1Br | 0.94 | 94%
59 | Cc1cc(Oc2cccc3oc4ccccc4c23)cc(C)c1O | 0 | 0%
60 | Oc1c(Br)cc(-c2nc3cccc(Cl)c3o2)cc1Br | 0.62 | 62%
61 | Oc1c(Br)cc(/C=C/c2c(Br)cccc2Br)cc1Br | 0.35 | 35%
62 | COc1cccc(OC)c1/C=C/c1cc(Br)c(N)c(Br)c1 | 0.02 | 2%
63 | Cc1cc(C)cc(-c2cccc3oc4ccccc4c23)c1 | 0.02 | 2%
64 | O=C(O)c1ccc2nc(-c3cc(Cl)cc(Cl)c3)oc2c1 | 0 | 0%

From ChEMBL document CHEMBL4052680, “Semi-quantitative models for identifying potent and selective transthyretin amyloidogenesis inhibitors” (Bioorg Med Chem Lett, 2017)
